Test results as given in US20170087167A1, “MODIFICATION OF DRUGS FOR INCORPORATION INTO NANOPARTICLES” (UNIVERSITY OF GEORGIA RESEARCH FOUNDATION, INC., priority 2015, published 2017).

Tests used:
TNF-α = assay: In vivo inflammation study, LPS stimulated mouse model, serum TNF-α by ELISA; parameters: species or system BALB/c Albino male mice; details: 20 mg/kg (with respect to aspirin) i.v.
Method: (§1) To explore the anti-inflammatory properties of the new aspirin derivative in NP formulation in vivo, we used mice stimulated with lipopolysaccharide (LPS). […] In our studies following similar protocol in C57BL/6 or BALB/c (albino) mice, we observed enhanced levels of TNF-α and IL-6 in the serum after intraperitonial administration of 100 μg of LPS per animal and the levels peaked at 1.5 and 3 h, respectively for TNF-α and IL-6. Next, 8 week old BALB/c male mice were administered with saline or aspirin (20 mg/kg) or NT-(Asp)4-NP (20 mg/kg with respect to aspirin) or T-(Asp)4-NP (20 mg/kg with respect to aspirin) by i.v. injections and after 12 h, these animals were subsequently treated with intraperitonially injected LPS for 1.5 h and 3 h (FIG. 3A). Serum samples were isolated from the treated animals and pro-inflammatory and anti-inflammatory cytokine levels in the serum samples were evaluated by the enzyme-linked immunosorbent assay (ELISA).
(§2) Anti-inflammatory properties of T/NT-(Asp)4-NPs and aspirin were evaluated in LPS stimulated mouse model. […] The absorbance of the product formed was recorded at 450 nm using a BioTek Synergy HT well plate reader.

IL-6 = assay: In vivo inflammation study, LPS stimulated mouse model, serum IL-6 by ELISA; parameters: species or system BALB/c Albino male mice; details: 12 h before LPS
Method: as §1, §2

CC(=O)Oc1ccccc1C(=O)O [aspirin, acetylsalicylic acid]
serum TNF-α level compared to only LPS (TNF-α; 12 h before LPS i.p., LPS for 1.5 h): non-significant | serum TNF-α level (TNF-α; 12 h before LPS, LPS for 3 h): did not show any significant differences | serum IL-6 level compared to only LPS (IL-6; 20 mg/kg (with respect to aspirin) i.v., LPS for 1.5 h): significantly reduced | serum IL-6 level compared to LPS alone (IL-6; 20 mg/kg i.v., LPS for 3 h): reduced IL-6 levels
